Measured values published in BindingDB's records for doi:10.1021/jm00104a010 (University of Illinois At Chicago, 1992).
pIC50: −log10 of the molar value.

Molecular target: Reverse transcriptase (Human immunodeficiency virus 2)
Assay: Inhibition of purified HIV-2 reverse transcriptase

SMILES | pIC50
O=C(O)c1cc(NS(=O)(=O)c2ccc(-c3ccc(S(=O)(=O)Nc4cc(C(=O)O)c(O)c(S(=O)(=O)O)c4)cc3)cc2)cc(S(=O)(=O)O)c1O | 3.32
O=C(O)CCCCCCCCC(=O)Nc1cc(S(=O)(=O)O)cc2cc(S(=O)(=O)O)cc(O)c12 | 3.77
Nc1c(S(=O)(=O)O)cc2cc(S(=O)(=O)O)cc(O)c2c1O | 3.34
O=C(CCCCCCCCC(=O)Nc1cc(S(=O)(=O)O)cc2cc(S(=O)(=O)O)cc(O)c12)Nc1cc(S(=O)(=O)O)cc2cc(S(=O)(=O)O)cc(O)c12 | 3.91
